Measured values reported in patent US7833513B2, “Treatment of Alzheimer's Disease” (Rhode Island Hospital, priority 2004, dated 2010).

Key:
Type in all cases: in vivo, Long Evans rat
[1] = system: learning and memory; assay: Morris Water Maze learning and memory test; settings: for behavior, learning and memory during the training period: 4-week old rats; for mean latency period to arrive at the hidden platform relative to control: Trial Day 4 / final day of testing
Procedure: (§1) On the same day, sub-sets of the ic-STZ group were given a single intra-peritoneal injection of vehicle (saline), or a PPAR-α (GW7647; 25 ug/Kg), PPAR-δ (L-165,041; 2 μg/Kg), or PPAR-γ (F-L-Leu; 20 μg/Kg) activator (CalBiochem, Carlsbad, Calif.). […] In addition, at 4 weeks of age, memory and learning were evaluated using a Morris Water Maze (R. W. Hickey, M. Akino, S. Strausbaugh, G. M. De Courten-Myers. Use of the Morris water maze and acoustic startle chamber to evaluate neurologic injury after asphyxial arrest in rats. Pediatr Res 39(1) (1996), 77-84). The procedures and use of rats in these experiments were approved by the Lifespan-Rhode Island Hospital IACUC committee.
Morris Water Maze Behavioral Tests: A standard Morris Water Maze was used to measure learning (R. W. Hickey, M. Akino, S. Strausbaugh, G. M. De Courten-Myers. Use of the Morris water maze and acoustic startle chamber to evaluate neurologic injury after asphyxial arrest in rats. Pediatr Res 39(1) (1996), 77-84). On the first day of testing, the rats were oriented to the water maze and educated about the location of the platform. On the 3 subsequent days of testing, the platform was submerged just below the surface, and the rats were tested for their learning and memory of the platform location by measuring the latency period required to reach and recognize the platform. The rats were allowed 120 seconds to locate the platform, after which they were guided to it. After landing on the platform, the rats were allowed to orient themselves for 15 seconds prior to being rescued. The rats were tested three times each day, with 30 min. intervals between trials. The rats were placed in the same quadrant of the water maze for every trial, except for trials 2 and 3 on the final day testing, when the start locations were randomized to test mastery of platform memory.

[2] = system: phospho-GSK-3β, GSK-3β, phospho-Tau, Tau; assay: ic-STZ ± PPAR agonist: Western blot analysis of GSK-3β and Tau; settings: hypothalamus
Procedure: as §1
Western Blot Analysis: Western blot analysis was used to assess the levels of Tau, phospho-Tau, GSK-3β, phospho-GSK-3β, and β-actin in temporal lobe tissue (E. J. Rivera, A. Goldin, N. Fulmer, R. Tavares, J. R. Wands, S. M. de la Monte, J. Alzheimers Dis 8(3) (2005), 247-68). Briefly, samples containing 40 μg protein were fractionated by sodium dodecyl sulfate, polyacrylamide gel electrophoresis (SDS-PAGE) (F. Ausubel, R. Brent, R. Kingston, D. Moore, J. Seidman, J. Smnith, et al. Current Protocols in Molecular Biology. (2000)). and transferred to PVDF membranes. Non-specific binding sites were adsorbed with SuperBlock-TBS (Pierce, Rockford, Ill.). Membranes were incubated over night at 4° C. with primary antibody (0.1-1 μg/ml-individually optimized) diluted in Tris-buffered saline (TBS; 50 mM Tris, 150 mM NaCl, pH 7.4) containing 0.5% bovine serum albumin, 0.05% Tween-20, and 0.025% NaN3 (TBST-BSA). Immunoreactivity was detected using horseradish peroxidase (HRP) conjugated IgG (Pierce, Rockford, Ill.) diluted to 1:50,000 in TBST+0.5% cassein, Western Lightning enhanced chemiluminescence reagents (Perkin Elmer Life Sciences Inc., Boston, Mass.), and digital imaging. Immunoreactivity was quantified using the Kodak Digital Science Imaging Station (NEN Life Sciences, Boston, Mass.).
PPAR Agonist Treatment Reduces ic-STZ-Mediated AD-Type Neurodegeneration: In AD, the neuronal cytoskeletal lesions that correlate with dementia, i.e. neurofibrillary tangles, dystrophic neuritis, and neuropil threads, contain insoluble fibrillar structures that are generated in part from hyper-phosphorylated Tau (K. Iqbal, C. Alonso Adel, S. Chen, M. O. Chohan, E. El-Akkad, C. X. Gong, et al. Tau pathology in Alzheimer disease and other tauopathies. Biochim Biophys Acta 1739(2-3) (2005), 198-210). […] J Alzheimers Dis 7(1) (2005), 63-80). […] Therefore, it was of interest to characterize the effects of PPAR agonists on GSK-3β activity and Tau phosphorylation in ic-STZ-treated brains. The levels of phospho-GSK-3β, GSK-3β, phospho-Tau, Tau, and β-actin ([…]) were examined in temporal lobe and hypothalamus homogenates by Western blot analysis. Immunoreactivity was detected and quantified by digital imaging, and the mean levels of protein expression and ratios of phospho-GSK-3β/GSK-3β and phospho-Tau/Tau measured in 4 replicate samples are depicted graphically (FIG. 31). Phospho-GSK-3β immunoreactivity was detected with antibodies directed against the Ser21/9 motif, corresponding to the inactivate form of the kinase.

[3] = biological target: T1, insulin receptor (Rattus norvegicus, UniProt P15127); assay: ic-STZ ± PPAR agonist: equilibrium and saturation binding to insulin receptors in the brain; settings: for BMAX, insulin receptor saturation binding in brains of treated rats: [125I]-insulin tracer, pooled brain membranes, 4 weeks after ic-STZ ± IP PPAR agonist; for mean insulin receptor binding: temporal lobe and cerebellum
T1 construct: from tissue; host or cells: rat brain (temporal lobe)
Procedure: as §1
Membrane protein extracted from fresh frozen brain tissue was used for competitive equilibrium and saturation binding assays. For total binding in equilibrium binding assays, duplicate samples were incubated in 100 μl reactions containing binding buffer (100 mM HEPES, pH 8.0, 118 mM NaCl, 1.2 mM MgSO4, 8.8 mM dextrose, 5 mM KCl, 1% bovine serum albumin) and 100 nCi/ml of [^125I] […] To measure total binding in saturation binding assays, samples from 8-12 brains per group were pooled in equal proportions, and duplicate samples were incubated in 100 μl reactions containing binding buffer and 0.0031 to 1 μCi/ml of [^125I] […] To detect non-specific binding in the equilibrium and saturation binding assays, duplicate reactions were incubated with the same concentrations of radiolabeled tracer plus 0.1 μM unlabeled (cold) competitive ligand. After 16 hours incubation at 4° C., bound radiolabeled tracer was precipitated with bovine gamma globulin and polyethylene glycol 8000. The precipitate (bound ligand) and supernatant (free ligand) fractions were counted in an LKB CompuGamma CS Gamma counter. Specific binding was calculated by subtracting fmols of non-specific binding, i.e. amount bound in the presence of excess cold ligand, from total fmols bound in the absence of unlabeled competitive ligand. GraphPad Prism 4 software (San Diego, Calif.) was used to calculate saturation binding (BMAX) and binding affinity (Kd) for each data set.

T1 sequence (P15127 27-759 limits assumed): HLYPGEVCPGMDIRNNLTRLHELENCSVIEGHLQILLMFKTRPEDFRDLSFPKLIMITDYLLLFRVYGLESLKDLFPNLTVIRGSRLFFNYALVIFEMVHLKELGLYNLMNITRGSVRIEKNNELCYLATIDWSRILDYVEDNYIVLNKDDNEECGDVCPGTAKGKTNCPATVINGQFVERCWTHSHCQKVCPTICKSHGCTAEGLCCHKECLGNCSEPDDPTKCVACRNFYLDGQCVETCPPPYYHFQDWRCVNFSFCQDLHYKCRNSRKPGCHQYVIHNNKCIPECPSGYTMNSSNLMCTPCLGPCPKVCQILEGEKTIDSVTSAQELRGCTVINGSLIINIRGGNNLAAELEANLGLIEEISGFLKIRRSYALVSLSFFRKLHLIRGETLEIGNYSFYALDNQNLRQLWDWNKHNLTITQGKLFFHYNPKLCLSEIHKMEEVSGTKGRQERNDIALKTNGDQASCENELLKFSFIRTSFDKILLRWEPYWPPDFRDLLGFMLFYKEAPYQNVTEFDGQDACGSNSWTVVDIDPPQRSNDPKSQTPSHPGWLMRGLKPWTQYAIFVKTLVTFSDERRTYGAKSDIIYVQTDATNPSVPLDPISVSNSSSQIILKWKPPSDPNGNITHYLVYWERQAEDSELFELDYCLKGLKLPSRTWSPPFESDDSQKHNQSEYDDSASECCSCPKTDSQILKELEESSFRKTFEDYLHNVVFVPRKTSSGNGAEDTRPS
T1 sequence (P15127 764-1383 limits assumed): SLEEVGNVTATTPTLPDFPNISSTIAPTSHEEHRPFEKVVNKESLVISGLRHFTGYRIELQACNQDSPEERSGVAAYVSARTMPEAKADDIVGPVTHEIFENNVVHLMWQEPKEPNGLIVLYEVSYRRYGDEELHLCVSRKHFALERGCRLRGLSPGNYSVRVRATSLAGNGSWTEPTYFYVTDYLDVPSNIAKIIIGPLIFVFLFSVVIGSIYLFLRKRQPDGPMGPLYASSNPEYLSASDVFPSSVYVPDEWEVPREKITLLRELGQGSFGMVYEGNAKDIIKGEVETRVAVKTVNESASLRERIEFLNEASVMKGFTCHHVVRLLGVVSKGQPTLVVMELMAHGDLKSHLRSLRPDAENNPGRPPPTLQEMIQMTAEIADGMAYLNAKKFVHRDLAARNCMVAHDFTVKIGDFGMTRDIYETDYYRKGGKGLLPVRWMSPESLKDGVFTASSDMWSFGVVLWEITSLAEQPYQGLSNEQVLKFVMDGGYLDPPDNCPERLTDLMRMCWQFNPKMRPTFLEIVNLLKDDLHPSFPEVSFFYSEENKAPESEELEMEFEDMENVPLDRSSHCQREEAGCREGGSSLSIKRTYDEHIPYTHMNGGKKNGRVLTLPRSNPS

Row | Structure (SMILES) | behavior, learning and memory during the training period [1] | mean latency period to arrive at the hidden platform relative to control [1] | phospho-GSK-3β level [2] | phospho-Tau level relative to control [2] | total Tau protein level [2] | BMAX, insulin receptor saturation binding in brains of treated rats [3] | mean insulin receptor binding [3] | insulin receptor binding ([3]; hypothalamus) | mean latency period vs control ([1]; first 3 days of testing) | mean latency vs control ([1]; fourth day) | learning and memory in Morris Water Maze ([1]; rats surviving 4 weeks or longer, preliminary studies) | steady-state insulin receptor binding ([3]; temporal lobe, hypothalamus, cerebellum)
1 | CC(C)(Sc1ccc(CCN(CCCCC2CCCCC2)C(=O)NC2CCCCC2)cc1)C(=O)O [PPAR-α agonist, GW7647] | delayed learning and impaired memory | significantly higher | significantly increased | significantly higher | slightly higher levels of Tau relative to all other groups | 1.172 fmol/mg protein | significantly increased |  |  |  |  | 
2 | CC(C)C[C@H](NC(=O)OCC1c2ccccc2-c2ccccc21)C(=O)O [PPAR-γ agonist, F-L-Leu] | delayed learning and impaired memory | significantly higher | significantly reduced | moderately reduced |  | 1.127 fmol/mg protein | significantly increased |  |  |  |  | 
3 | CCCc1c(OCCCOc2ccc(OCC(=O)O)cc2)ccc(C(C)=O)c1O [PPAR-δ agonist, L-165,041] | no detectable abnormalities in behavior, learning, or memory | no significant difference | significantly increased | moderately reduced |  | 2.186 fmol/mg protein | significantly increased | significantly increased |  |  |  | 
4 | CN(N=O)C(=O)NC1C(O)OC(CO)C(O)C1O (stereo not shown) [STZ] |  |  |  |  |  | 0.8421 fmol/mg protein |  |  | approximately twice as long as control | no significant differences | striking impairments in learning and memory | significantly reduced
